One assay has as its target T1, GFAT1S (Homo sapiens, UniProt Q06210).
T1 construct: made in house; host or cells: E. coli BL21-CodonPlus(DE3)RIL, pET23b vector; ultracentrifuged lysate supernatant, not purified
In words: GFAT activity assay (spectrophotometric, GDH/APAD coupled): Km values and inhibition pattern of UDP-G1cNAc, GFAT1S. Type of assay: biochemical. Here is the method:
(§1) GFAT activity was determined in accordance with Marshall et al. by means of spectrophotometry using a microplate (96 wells) (Journal of Biological Chemistry, vol. 266 No. 8, 4706–4712 (1991)) in the following manner. Glutamate produced by GFAT was allowed-to react with glutamate dehydrogenase (GDH), during which a reductive reaction of coenzyme APAD into APADH proceeded simultaneously. Changes in absorbance that accompany the reduction reaction of APAD to APADH are considered to represent GFAT activity.
(§2) Briefly, an appropriately diluted solution of a lyzate of GFAT1L- or GFAT1S-introduced E. coli (50 μl) was added to a substrate solution (200 μl) containing a sodium phosphate buffer (pH=7.5; 40 mM), potassium chloride (50 mM), EDTA (1.25 mM), APAD (0.3 mM), GDH (6 U/ml), glutamine (0–6 mM), and fructose-6-phosphate (F-6-P: 0–6 mM), and the mixture was allowed to react at 37° C. for 60 minutes. The absorbance change at 365 nm associated with the reaction was measured by use of a microplate reader.
(§3) In order to study the difference in terms of enzymatic behavior between GFAT1L and GFAT1S, Km values were determined using, as substrates, glutamine and F-6-P. Km values were calculated on the basis of :S/v−S plotting and v−v/S plotting, which were made with regard to the enzyme substrate concentration (S) and activity of the enzyme (reaction rate (v)). […]

For a further assay, the target named is T2, GFAT1L (Homo sapiens, UniProt Q06210).
T2 construct: made in house; host or cells: E. coli BL21-CodonPlus(DE3)RIL, pET23b vector; ultracentrifuged lysate supernatant, not purified
T2 sequence (Q06210 whole entry): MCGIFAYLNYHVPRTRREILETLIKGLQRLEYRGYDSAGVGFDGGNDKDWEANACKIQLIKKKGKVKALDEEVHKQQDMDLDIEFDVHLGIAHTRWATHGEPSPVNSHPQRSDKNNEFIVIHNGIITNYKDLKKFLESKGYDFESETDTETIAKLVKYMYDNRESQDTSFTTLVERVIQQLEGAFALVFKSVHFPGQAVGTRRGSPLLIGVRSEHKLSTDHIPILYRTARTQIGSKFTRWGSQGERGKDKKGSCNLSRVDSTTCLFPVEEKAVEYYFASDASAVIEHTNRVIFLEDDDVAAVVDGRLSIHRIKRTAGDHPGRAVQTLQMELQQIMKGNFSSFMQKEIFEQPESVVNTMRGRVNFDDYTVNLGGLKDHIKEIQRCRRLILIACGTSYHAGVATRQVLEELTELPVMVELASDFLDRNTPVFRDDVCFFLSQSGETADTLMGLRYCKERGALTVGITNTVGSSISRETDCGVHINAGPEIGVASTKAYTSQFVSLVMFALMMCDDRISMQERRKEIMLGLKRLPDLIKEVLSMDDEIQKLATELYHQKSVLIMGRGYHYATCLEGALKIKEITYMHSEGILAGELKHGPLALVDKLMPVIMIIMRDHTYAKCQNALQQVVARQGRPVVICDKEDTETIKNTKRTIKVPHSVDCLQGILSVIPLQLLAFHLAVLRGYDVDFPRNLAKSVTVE
In words: GFAT activity assay (spectrophotometric, GDH/APAD coupled): Km values and inhibition pattern of UDP-G1cNAc, GFAT1L. It is filed as biochemical. As to the method:
as §1, §2, §3

Where [1] appears, read: F-6-P as substrate, UDP-G1cNAc 30, 100 μM.
Where [2] appears, read: glutamine as substrate, UDP-G1cNAc 10, 30, 100 μM.

T1 sequence (Q06210 1-681 isoform Q06210-2): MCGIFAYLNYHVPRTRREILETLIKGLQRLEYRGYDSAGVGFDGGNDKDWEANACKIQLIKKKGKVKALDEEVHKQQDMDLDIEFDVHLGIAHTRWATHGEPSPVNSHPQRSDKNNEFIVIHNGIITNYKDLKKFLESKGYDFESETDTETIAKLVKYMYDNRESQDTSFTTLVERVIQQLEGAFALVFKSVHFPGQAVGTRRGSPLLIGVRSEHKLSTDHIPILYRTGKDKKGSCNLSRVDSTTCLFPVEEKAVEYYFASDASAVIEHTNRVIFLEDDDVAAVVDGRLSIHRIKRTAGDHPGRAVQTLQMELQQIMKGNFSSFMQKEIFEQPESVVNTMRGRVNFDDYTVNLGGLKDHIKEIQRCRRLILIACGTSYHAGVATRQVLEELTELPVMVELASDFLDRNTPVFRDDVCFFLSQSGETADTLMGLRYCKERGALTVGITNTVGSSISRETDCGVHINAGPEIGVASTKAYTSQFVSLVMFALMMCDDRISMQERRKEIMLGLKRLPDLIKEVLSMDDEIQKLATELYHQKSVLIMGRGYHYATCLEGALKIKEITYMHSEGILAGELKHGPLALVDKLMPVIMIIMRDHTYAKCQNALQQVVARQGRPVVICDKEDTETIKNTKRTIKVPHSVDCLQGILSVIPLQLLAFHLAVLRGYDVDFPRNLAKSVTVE

As for `CC(=O)N[C@H]1[C@@H](OP(=O)(O)OP(=O)(O)OC[C@H]2O[C@@H](n3ccc(=O)[nH]c3=O)[C@H](O)[C@@H]2O)O[C@H](CO)[C@@H](O)[C@@H]1O` [UDP-G1cNAc, UDP-N-acetylglucosamine], the results for the “Inhibition pattern of UDP-G1cNAc against GFAT activity, F-6-P” value at GFAT1S (setting [1]) and on GFAT1L (setting [1]) were “competitive inhibition” and “mixed inhibition”, respectively. Besides, the “Inhibition pattern of UDP-G1cNAc against GFAT activity, Glutamine” value on GFAT1S (setting [2]) was “un-competitive inhibition”; on GFAT1L (setting [2]), “mixed inhibition”.
